These results are taken from patent US20070142396A1, “Treatment of pain with 1-[3-[4-(3-chlorophenyl)-1-piperazinyl]propyl]-5-methoxy-3,4-dihydro-2(1H)-quinolone or salt thereof” (Vela Pharmaceuticals, Inc., priority 2005, published 2007).

The test system of the experiment is rats with L5 spinal nerve ligation (SNL model). The experiment is described as follows: Spinal nerve ligation (L5) neuropathic pain model, von Frey filaments, dose range (Example 5). The class given is in vivo, rat. From the text:
The spinal nerve ligation (SNL) model of neuropathic pain was produced in all rats as described by Kim and Chung (Pain, 50, 355-363, 1992). Briefly, under gaseous anesthesia using halothane (3% for induction and 1.5% for maintenance) in oxygen, the left L5 spinal nerve was exposed by removing the paraspinal muscles and the transverse process of the L6 vertebra. The very proximal portion of the L5 spinal nerve was tightly ligated with 6-0 silk suture. The wounds were closed and anesthesia was discontinued. Rats were kept on a heated blanket until they had completely recovered from anesthesia.
Behavioral tests were conducted in a non-blind fashion. The foot withdrawal threshold to mechanical stimuli applied to the paw (mechanical threshold) was measured, as an indicator of mechanical sensitivity of the affected paw. The foot withdrawal threshold was measured using von Frey filaments. It is generally thought that von Frey filaments are more sensitive than electronic von Frey probes for measuring tactile stimulation. The mechanical thresholds were measured by using the “up-and-down” method (Chaplan et al., J. Neurosci. Methods 53(1):55-63, 1994), following the procedures described in previous studies (Park et al., Pain 87(2):171-179, 2000; Xie et al., J. Pain 2(5):270-278, 2001; Baik et al., J. Pain 4:212-221, 2003). In brief, rats were placed in a transparent plastic box on a metal wire mesh floor. To determine the threshold stiffness required for 50% paw withdrawal, a series of eight von Frey filaments with approximately equal logarithmic incremental (0.22) von Frey values (3.65, 3.87, 4.10, 4.31, 4.52, 4.74, 4.92, and 5.16) were used. Von Frey (VF) values are logarithmically related to gram (g) values (VF=log (10,000×g)). The chosen von Frey values are therefore equivalent to 0.45, 0.74, 1.26, 2.04, 3.31, 5.50, 8.32, and 14.45 in gram value, respectively. Starting with filament 4.31, von Frey filaments were applied perpendicularly to the ventral surface of the proximal part of the third or fourth toe for 2-3 seconds. Whenever a positive response to a stimulus occurred (paw withdrawal), the next smaller von Frey hair was applied. Whenever a negative response occurred, the next larger one was applied. The test was continued until the response of six stimuli after the first change in response had been obtained or the test had reached either end of the spectrum of the von Frey set.
The 50% threshold value was then calculated using Dixon's formula (Dixon, Ann. Rev. Phar. Tox. 20:441-462, 1980): 50% threshold=X+kd, where X is the value of the final von Frey hair used (in log units), k is the tabular value for the pattern of positive/negative responses, and d is the mean difference between stimuli in log units (0.22). In the cases where continuous positive or negative responses were observed all the way out to the end of the stimulus spectrum, values of 3.54 or 5.27 were assigned, respectively, by assuming a value of (−/+) 0.5 for k in these cases (Dixon, supra, 1980). Outcome of behavioral data were expressed as von Frey values (maximum range from 3.54 to 5.27) and plotted in a linear scale.
Data were expressed as the mean±standard errors of mean (SEM). Differences in mechanical thresholds at various times after injections were tested using two-way (time and group factors) analysis of variance (ANOVA), followed by the Duncan's post-hoc test for multiple comparisons. Statistical analyses were done using the SAS® software program (SAS Institute Inc, Cary, N.C.). Two-tailed p-values<0.05 were considered to be significant.
This experiment was conducted on 8 rats in a Latin-square design examining a dose response of OPC-14523. Gabapentin was prepared at 10 mg/ml in 0.5% tragacanth and administered at 100 mg/kg p.o. Behavioral tests were conducted in a blind fashion twice (1 day and 1 hour) before as well as 1 and 4 days after the neuropathic surgery. […] These 8 rats were randomly divided into 6 groups of 1-2 rats. […]

Regarding `COc1cccc2c1CCC(=O)N2CCCN1CCN(c2cccc(Cl)c2)CC1` [OPC-14523, 1-[3-[4-(3-chlorophenyl)-1-piperazinyl]propyl]-5-methoxy-3,4-dihydro-2(1H)-quinolone], the “effect on mechanical threshold” value by setting is: (10 mg/kg oral) “neither vehicle nor OPC-14523 at 10 mg/kg produced significant changes”; (30 mg/kg oral) “statistically significant increase”; (60 mg/kg oral) “statistically significant increase”; (100 mg/kg oral) “statistically significant increase”. Also, the “level of response compared with gabapentin 100 mg/kg p.o.” value was “comparable to that of gabapentin” (30 mg/kg oral) and “comparable to that of gabapentin” (60 mg/kg oral). Besides, the “level of mechanical threshold reached” value (100 mg/kg oral, exceeding the response induced by gabapentin) is “about the level observed prior to the ligature surgery”.
